Data as given in patent US5672585A, “Method and composition for treating thrombosis” (priority 1995, dated 1997).
Where two headings read alike, the source gives them in different places. Where no end group is shown, it is not given here. [ ]: non-standard residue; d: D form. The star is where a group is joined. Pmc = Cc1c(C)c(S(=O)(=O)*)c(C)c2c1OC(C)(C)CC2; Pen = CC(C)(S)[C@H](N)C(=O)O

Assays:
platelets [1] = assay type: cell-based; conditions: for platelet aggregation potency relative to analogue 3: more potent than analogue 3; for increase in platelet aggregation potency relative to analogue 5: substitution of Leu at position 3
Procedure: (§1) Platelet aggregation was assessed using the method of Born, Nature 194:927-929 (1962), incorporated herein by reference. Briefly, the change in light transmission was measured through a stirred suspension of platelets in an aggregometer (Model 400 VS, Chrono-Log, Hayertown, Pa., USA). […] In studies using thrombin, the PRP was gel-filtered on Sepharose 2B in divalent ion-free Tyrode's solution containing 2% BSA. For all studies, the reference standard was platelet-poor plasma, which was obtained by centrifuging PRP at 1000×g for 5 min.
(§2) All aggregation studies were performed at 37° C. with a constantly stirred suspension of 3×10^8 platelets/mL. (Platelet count was determined with the aid of a hemacytometer.) Peptides and stimulants were added to these suspensions in 1% dilutions. The PRP and gel-filtered platelets were used within three hours from the time of blood collection.
The peptides described in this Example were synthesized according to the methods of Examples I and XI. Selectivity and potency were measured according to the methods of Examples II through XI. The peptide identification numbers used in this Example are consistent and relevant to this Example only. Some of the peptides are identified by other nomenclature elsewhere in this document.

platelets [2] = test: ADP-stimulated platelet aggregation in platelet-rich plasma (Table I); conditions: read-out: ADP-Stimulated Aggregation; ADP 10 μm, citrated platelet-rich plasma, 37° C.; * concentrations unconfirmed by amino acid composition analysis
Procedure: (§4) All aggregation studies were performed at 37° C. with a constantly stirred suspension of 3×10^8 platelets/ml. (Platelet count was determined with the aid of a hemacytometer.) Peptides and stimulants were added to these suspensions in 1% dilutions. The PRP and gel-filtered platelets were used within three hours from the time of blood collection.

platelets [3] = test: Ex vivo inhibition of platelet aggregation (Table IV); assay type: in vivo, dog; conditions: for ex vivo inhibition of platelet aggregation (%): dose as listed per peptide in Table IV; for ex vivo platelet aggregation: doses of Table IV
Procedure: as §1, with “Platelet aggregation assays were performed following the methods of this Example or those of Example IX.G. Platelet” for “Platelet”, “(Nature” for “Nature”, “(1962)),” for “(1962),”
as §2, with “platelets/ml.” for “platelets/mL.”
Peptide anti-aggregation potencies were determined from dose-responsive curves for the inhibition of the maximum aggregation responses stimulated by physiologic doses of ADP (10 μm) and thrombin (2 U/ml).
Using the method described in Example V to measure ex vivo inhibition of platelet aggregation and the method described in Example VII to measure bleeding, four additional peptides were tested. These peptides included 11J, 11Q, 11K and 11V.

[4] = target: T1, Fibronectin receptor (Fn-R) (Homo sapiens, UniProt P05556+P08648); test: FnR binding, competitive ELISA (Table I); conditions: purified receptor, * concentrations unconfirmed by amino acid composition analysis
T1 construct: Fibronectin receptor (Fn-R) was similarly purified from (100 mM) octyl glucoside-extracted human placenta; from tissue; host or cells: human placenta
T1 sequence (P08648 42-894 limits assumed): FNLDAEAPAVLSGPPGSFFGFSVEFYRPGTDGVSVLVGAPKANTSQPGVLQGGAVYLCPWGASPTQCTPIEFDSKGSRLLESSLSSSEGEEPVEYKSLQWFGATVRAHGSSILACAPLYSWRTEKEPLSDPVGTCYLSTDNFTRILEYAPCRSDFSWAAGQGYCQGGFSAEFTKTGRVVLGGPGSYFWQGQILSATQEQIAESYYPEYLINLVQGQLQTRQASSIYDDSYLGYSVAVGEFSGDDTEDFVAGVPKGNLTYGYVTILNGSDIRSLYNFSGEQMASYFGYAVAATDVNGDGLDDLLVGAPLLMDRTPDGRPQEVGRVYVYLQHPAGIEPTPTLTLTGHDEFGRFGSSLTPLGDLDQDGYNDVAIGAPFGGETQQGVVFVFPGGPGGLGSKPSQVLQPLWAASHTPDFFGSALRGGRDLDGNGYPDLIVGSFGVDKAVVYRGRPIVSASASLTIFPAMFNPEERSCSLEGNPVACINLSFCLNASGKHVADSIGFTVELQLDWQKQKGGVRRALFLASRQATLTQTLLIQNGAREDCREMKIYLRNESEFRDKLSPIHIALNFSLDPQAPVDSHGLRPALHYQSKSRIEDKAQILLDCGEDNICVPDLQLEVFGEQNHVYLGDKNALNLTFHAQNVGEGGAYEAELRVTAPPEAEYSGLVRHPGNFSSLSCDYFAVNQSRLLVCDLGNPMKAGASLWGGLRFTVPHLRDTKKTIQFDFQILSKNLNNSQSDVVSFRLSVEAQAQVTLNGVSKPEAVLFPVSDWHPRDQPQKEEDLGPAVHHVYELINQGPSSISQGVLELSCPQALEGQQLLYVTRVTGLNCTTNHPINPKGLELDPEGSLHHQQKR
T1 sequence (P08648 895-1049 partner limits assumed): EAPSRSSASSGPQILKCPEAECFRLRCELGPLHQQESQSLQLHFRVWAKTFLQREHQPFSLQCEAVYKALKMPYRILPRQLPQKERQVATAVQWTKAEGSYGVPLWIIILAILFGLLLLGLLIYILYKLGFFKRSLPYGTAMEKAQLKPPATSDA
T1 sequence (P05556 21-798): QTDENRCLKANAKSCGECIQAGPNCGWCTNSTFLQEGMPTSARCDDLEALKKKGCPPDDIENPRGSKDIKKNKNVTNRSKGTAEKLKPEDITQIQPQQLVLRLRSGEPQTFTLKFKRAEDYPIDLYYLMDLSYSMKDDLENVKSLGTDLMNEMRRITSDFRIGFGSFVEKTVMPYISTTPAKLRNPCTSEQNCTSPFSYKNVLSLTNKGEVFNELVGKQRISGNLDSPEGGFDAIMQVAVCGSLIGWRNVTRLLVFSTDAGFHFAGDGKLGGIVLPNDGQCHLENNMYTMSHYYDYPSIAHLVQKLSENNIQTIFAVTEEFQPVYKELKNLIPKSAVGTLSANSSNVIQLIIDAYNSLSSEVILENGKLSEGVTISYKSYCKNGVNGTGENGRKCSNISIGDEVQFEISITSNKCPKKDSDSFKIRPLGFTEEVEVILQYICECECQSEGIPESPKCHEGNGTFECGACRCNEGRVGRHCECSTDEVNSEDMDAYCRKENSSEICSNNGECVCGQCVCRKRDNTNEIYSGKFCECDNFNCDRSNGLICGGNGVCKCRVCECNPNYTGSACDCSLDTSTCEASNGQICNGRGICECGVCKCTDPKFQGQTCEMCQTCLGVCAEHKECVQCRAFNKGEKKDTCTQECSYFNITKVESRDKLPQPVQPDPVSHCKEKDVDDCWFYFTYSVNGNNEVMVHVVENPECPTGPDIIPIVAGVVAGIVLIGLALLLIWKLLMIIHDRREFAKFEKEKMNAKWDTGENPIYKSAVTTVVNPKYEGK
Procedure: Peptide binding to purified Fn-R was determined by using a competitive enzyme-linked immunosorbent assay (ELISA) in which fibronectin is immobilized and the binding of solubilized Fn-R and the binding of solubilized FN-R, in the presence of various concentrations of peptide analogue, is detected with a polyclonal anti-Fn-R antibody followed by a labelled anti-rabbit IgG conjugate.
Microtiter plates were coated with 110 μl of human fibronectin (at 2 μg/ml) in TBS. The plates were washed three times with TBS that contained 0.05% Tween 20. 50 microliters of receptor in TBS containing 20 mM octylglucoside and 2 mM NmCl2 was added to each well. 50 microliters of peptide in the same buffer was then added in 10-fold serial dilutions. The plates were incubated for three hours at room temperature, washed with 200 μl of the above TBS-Tween buffer. 100 μl of affinity-purified rabbit anti-human fibronectin receptor antibody was added to the wells and the plates were incubated for an additional two hours, washed twice with TBS-Tween and then distilled water. Affinity-purified goat anti-rabbit IgG conjugated to horseradish peroxidase (100 μl) was then added to each well. Bonding reactions were incubated for 16 hours at room temperature. The following day, the plates were washed twice with TBS-Tween and then distilled water. […]
IC50 s for FnR were determined by ELISA (Example III).

[5] = target: vitronectin receptor (Vn-R); test: VnR binding, ELISA or liposome attachment assay (Table I); parameters: species or system human; conditions: purified receptor
Procedure: Receptor and ligand purifications were performed according to the methods in this Example or those in Examaple XI.C. Receptors were purified according to the procedures of Pytela et al. (Methods Enzymol. 144:475 (1987)), incorporated herein by reference. […] Except where stated, all procedures were carried out at 4° C. The peptide column was washed with three volumes of Tris-buffered saline (TBS) containing 1 mM Ca^2+ and 25 mM OG and then with TBS containing 1 mM Ca^2+ and 25 mM octyl thioglucoside (OTG) at room temperature. […] Finally, Ca^2+ and Mg^+2 were added to eluted fractions to achieve final concentrations of 1 mM for both ions.
This assay was performed with minor modifications, according to the method of Pytela et al., Methods Enzymol. 144:475 (1987), incorporated herein by reference. Briefly, 1:4 mixture of labelled and unlabelled phosphatidylcholine (PC) liposomes was dissolved under nitrogen and diluted with an equal volume of purified receptor (purified as described in Example II) to achieve a fixed predetermined receptor-liposome concentration ratio. This mixture was then dialyzed overnight at 4° C. in phosphate buffered saline (PBS) containing 1 mM Ca^2+. An aliquot of the dialyzed sample was counted to assess radioactive content; the receptor-liposome mixture was then diluted to obtain a set radioactivity per unit volume.
Microtiter plates were coated with 10 μg of vitronectin. Non-specific sites were blocked for 2 hours at 37° C. in PBS containing 5 mg/ml BSA and 1 mM each of CaCl2 and MgCl2. The plates were then rinsed twice with PBS containing 1 mM Ca^+2 and Mg^+2, and 100 μl of the liposome-receptor mixture was added to each well. If necessary, peptides were added before this step in a 1-10% dilution. The plates were then incubated at 4° C. for 24 hours. The following day, the liquid in each well was aspirated and the plates were washed twice with PBS containing 1 mM Ca^+2 and Mg^+2. Finally, 100 μl of 2% SDS was added, the plates were shaken for 10-15 minutes, and the supernatants were collected, vortexed, and subjected to liquid scintillation counting. This procedure typically yielded ca. 1000 total and 100 non-specific counts per well.
In parallel studies with the platelet aggregation experiments (described in Example V), the apparent affinities of peptides for GP IIbIIa, fibronectin and vitronectin receptors were determined. Receptor-binding assays (as described in Examples III and IV) with purified receptors, were used to assess the abilities of the peptides to displace the binding of receptors to their receptor-specific ligands.
(§5) Those for VnR and GP IIb/IIIa were determined either by ELISA or liposome attachment assay (Example IV).

platelets [6] = test: Thrombin-stimulated platelet aggregation (Table I); conditions: read-out: Thrombin Stimulated Aggregation; thrombin 2 U/ml, gel-filtered platelets, 37° C.
Procedure: as §4

canine platelets = test: Canine platelet aggregation in vitro (ADP, arachidonic acid, collagen); assay type: cell-based, dog; conditions: stimulated by 10 μm ADP, […] arachidonic acid or 9.6 micrograms/ml collagen
coronary thrombosis = test: Electrically induced canine coronary thrombosis, time to full occlusion; assay type: in vivo; conditions: dog
Procedure: Male mongrel dogs weighing 14 to 20 kg were selected based on proper aggregation of their platelets in response to arachidonic acid, collagen, and adenosine disphosphate (ADP) and based on similar weights and hemodynamic properties.
Before surgery, the animals were anesthetized with sodium pentobarbital (30 mg/kg, i.v.) and then intubated and ventilated on room air with positive pressure using a respirator (Harvard Apparatus, S. Natick, Mass.) at a volume of 30 ml/kg and a frequency of 12 breaths/min. Surgery, performed under aseptic conditions, was begun with the placement of cannulae into the left carotid artery and jugular vein for monitoring arterial blood pressure (Statham P23 pressure transducer, Gould, Inc., Cardiovascular Products, Oxnard, CA) and administering intravenous fluids.
The heart was exposed via a left thoracotomy through the 5th intercostal space. A 2-cm segment of the left circumflex coronary artery (LCCA) was isolated from surrounding tissue by blunt dissection. […] The intra-coronary electrode was constructed by attaching a 25-gauge hypodermic needle tip to a 30-gauge Teflon-insulated silver-coated copper wire. The mechanical occluder was constructed of stainless steel in a C shape with a Teflon screw (2 mm diameter) on top. It was adjusted to control vessel circumference and decrease the reactive hyperemic flow due to a 10-sec (full) occlusion by 50-70% without affecting basal coronary blood flow (FIG. 1C). A monopolar epicardial electrode was sutured to the surface of the ventricle in the region of LCCA distribution to monitor ischemic changes in the electrocardiogram (ECG). The left atrium was cannulated with polythylene tubing for administration of the peptide. Continuous recordings of blood pressure, limb lead II ECG, epicardial electrogram, and mean and phasic LCCA blood flow were obtained on a Model 7 polygraph (Grass Instrument Co., Quincy, Mass.).
One hour after the completion of surgery, a 100 micro-amp continuous anodal direct current delivered from a 9 volt nickel-cadmium battery was applied to the intimal surface of the LCCA. The anode of the battery was in series with a 250,000 ohm potentiometer and the intraluminal coronary artery electrode. The electric circuit was completed by placing the cathode in a subcutaneous site. Electrical stimulation was applied for three hours. At the conclusion of each experiment, the heart was fibrillated electrically and quickly removed, and the LCCA was dissected free as far as possible to verify the position of the implanted anodal electrode.
(§3) Animals were randomly assigned to two treatment groups: vehicle control (i.e., normal saline) or RGD peptides at various concentrations. Peptides were administered intra-atrially in both bolus and continuous injections. Each bolus injection consisted of 0.5 to 10 mg/kg and was administered 15 minutes before application of the current. A continuous infusion of the same peptide was then started immediately after completion of this initial injection. Animals received a 25 μg/kg/min to 200 μg/kg/min infusion. The anti-thrombotic effects of the peptides were monitored until 30 minutes after the occurrence of a persistent, occlusive thrombus or five hours after the initiation of electrical stimulation (whichever resulted first). If an occlusive thrombus had not developed within four hours after the initiation of current, the peptide infusion was stopped.
Coronary thrombosis was quantified as the time to full occlusion. The effects of the various peptide treatments on coronary thrombosis is illustrated in FIG. 4.

platelets [7] = test: Ex vivo platelet aggregation in the canine coronary thrombosis study; conditions: dog, 10 mg/kg injection
Procedure: For all ex vivo studies (see FIGS. 3A, 3B1, 3B2, 3B3, 3C1 and 3C2), control aggregation values were standardized to the percentages of light transmission observed in PRP and PPP samples (0% and 100%, respectively).
as §3
Platelet counts and ex vivo aggregation studies were performed one hour before and 1, 3, and 5 hours after application of anodal direct current.
Platelet aggregation was also determined ex vivo at one, three, and five hours after current application. For these studies, arachidonic acid, or collagen was again used to stimulate the platelets.

GP IIb/IIIa = GP IIb/IIIa (Homo sapiens, UniProt P05106+P08514); test: IIb/IIIa binding, ELISA or liposome attachment assay (Table I); parameters: Platelet glycoprotein IIb/IIIa was purified from outdated human platelets; from tissue; host or cells: outdated human platelets; conditions: purified receptor
Chain of GP IIb/IIIa (P08514 32-887 limits assumed): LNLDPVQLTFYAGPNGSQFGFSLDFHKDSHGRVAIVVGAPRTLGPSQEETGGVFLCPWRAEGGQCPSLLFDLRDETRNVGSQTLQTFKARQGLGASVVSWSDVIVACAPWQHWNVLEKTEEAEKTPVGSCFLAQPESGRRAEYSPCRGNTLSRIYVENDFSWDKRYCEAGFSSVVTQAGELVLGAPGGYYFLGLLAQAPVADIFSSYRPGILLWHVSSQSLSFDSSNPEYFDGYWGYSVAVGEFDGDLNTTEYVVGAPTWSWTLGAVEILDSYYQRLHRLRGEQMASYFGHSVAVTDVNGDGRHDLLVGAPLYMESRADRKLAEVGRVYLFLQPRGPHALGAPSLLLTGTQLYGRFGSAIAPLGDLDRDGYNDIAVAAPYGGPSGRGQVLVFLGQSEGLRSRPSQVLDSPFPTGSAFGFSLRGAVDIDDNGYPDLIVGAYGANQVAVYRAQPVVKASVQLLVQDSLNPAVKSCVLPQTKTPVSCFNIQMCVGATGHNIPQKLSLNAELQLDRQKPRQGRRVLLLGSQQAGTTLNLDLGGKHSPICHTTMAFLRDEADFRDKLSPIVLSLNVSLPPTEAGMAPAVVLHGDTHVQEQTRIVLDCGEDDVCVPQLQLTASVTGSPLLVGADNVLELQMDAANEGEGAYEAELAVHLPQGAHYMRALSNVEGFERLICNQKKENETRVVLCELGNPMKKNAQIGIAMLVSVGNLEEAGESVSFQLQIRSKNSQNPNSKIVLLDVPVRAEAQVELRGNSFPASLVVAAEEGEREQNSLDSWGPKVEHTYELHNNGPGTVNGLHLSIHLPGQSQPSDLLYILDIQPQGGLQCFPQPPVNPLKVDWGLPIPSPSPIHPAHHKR
Chain of GP IIb/IIIa (P08514 891-1039 partner limits assumed): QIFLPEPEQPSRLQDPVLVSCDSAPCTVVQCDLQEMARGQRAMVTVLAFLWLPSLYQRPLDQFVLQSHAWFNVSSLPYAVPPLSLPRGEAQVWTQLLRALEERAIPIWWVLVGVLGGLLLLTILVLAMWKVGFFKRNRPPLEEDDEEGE
Chain of GP IIb/IIIa (P05106 27-788): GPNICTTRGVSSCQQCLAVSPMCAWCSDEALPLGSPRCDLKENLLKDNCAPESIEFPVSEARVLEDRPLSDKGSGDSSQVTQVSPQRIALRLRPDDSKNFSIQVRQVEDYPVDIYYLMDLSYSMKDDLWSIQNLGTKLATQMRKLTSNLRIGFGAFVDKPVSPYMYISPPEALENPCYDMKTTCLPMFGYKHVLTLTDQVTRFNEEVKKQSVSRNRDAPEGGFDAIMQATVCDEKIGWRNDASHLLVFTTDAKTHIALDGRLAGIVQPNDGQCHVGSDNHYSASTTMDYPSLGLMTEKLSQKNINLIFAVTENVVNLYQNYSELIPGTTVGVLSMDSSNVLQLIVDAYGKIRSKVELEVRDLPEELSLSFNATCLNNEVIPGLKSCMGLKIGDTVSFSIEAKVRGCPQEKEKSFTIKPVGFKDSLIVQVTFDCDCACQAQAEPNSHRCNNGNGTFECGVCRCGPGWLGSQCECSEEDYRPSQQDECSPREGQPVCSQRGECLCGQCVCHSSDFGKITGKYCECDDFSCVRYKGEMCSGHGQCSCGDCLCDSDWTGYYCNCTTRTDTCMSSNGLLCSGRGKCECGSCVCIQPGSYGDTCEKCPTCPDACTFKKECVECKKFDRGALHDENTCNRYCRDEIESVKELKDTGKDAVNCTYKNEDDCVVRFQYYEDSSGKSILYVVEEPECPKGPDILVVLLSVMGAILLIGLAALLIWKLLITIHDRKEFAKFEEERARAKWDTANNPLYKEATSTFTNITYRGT
Procedure: Microtiter plates, 96 wells were coated (Type Nunc 1 Maxispor™) with 10 μg/ml purified fibrinogen (100 μl/well), and allowed to stand overnight at 4° C. The plates were washed three times with PBS Tween, 0.137M NaCl, 0.003M KCl, 0.008M Na2 HPO4, pH 7.4 at room temperature, 0.05% Tween-20 and blocked for 1 to 2 hours at room temperature with 200 μl/well TNCNT (which is 0.5% BSA, 20 mM Tris, pH 7.5 at room temperature, 120 mM NaCl, 0.2% NAN3, 2 mM CaCl2, 0.05% Tween 20, [Calbiochem RIA grade or better]) on a plate shaker. The plates were again washed three times with PBS/Tween and 50 μl of sample in TNCNT is added. The mixture was incubated for 15 minutes at room temperature on a plate shaker. The stock solution of purified GPIIb IIIa receptor from human platelets, (0.4-1.0 mg/ml GPIIb IIIa in 0.1% Triton X-100, 1 mM CaCl2, 20 mM Tris, 150 mM NaCl, 0.05% NaN3 in 0.3M N-acetyl glucosamine pH 7.5, stored at -70° C.), was reconstituted in TNCNT. Fifty (50) μl of this diluted GPIIb IIIa was then added to each well and incubated on a plate shaker at room temperature. […] The optical density at 492 nm vs 405 nm was recorded and IC50 values are determined.
as §5

[8] = substitution of Arg at position 4

Substance: (Pmp)GHRGDLRCA
- platelet aggregation potency relative to analogue 1 (platelets [1]; more potent than analogue 1): 2 fold

Substance: (Pmp)GRGDTPCA
- IC50 (platelets [2]): 85 µM

Substance: (t-but-am-Pmp)GHRGDLR(Pen)A [(t-but-am-P mp)GHRGDLR(Pen)A]
- IC50 (platelets [2]): 89 µM

Substance: Ac- CNPKGD(Y--OMe)RC--NH2 [Peptide 11Q]
- ex vivo inhibition of platelet aggregation (%) (platelets [3]): > 95%
- ex vivo platelet aggregation (platelets [3]): inhibited ex vivo platelet aggregation

Substance: Ac- CNPRGD(Y--OMe)(Cit)C--NH2 [Peptide 11S]
- platelet aggregation potency compared with analogue 32 (platelets [1]; [8]): substantial decreases in platelet aggregation potency

Substance: Ac- CNPRGD(Y--OMe)(Nle)C--NH2 [Peptide 11V]
- ex vivo inhibition of platelet aggregation (%) (platelets [3]): > 98%
- ex vivo platelet aggregation (platelets [3]): inhibited ex vivo platelet aggregation

Substance: Ac- CNPRGD(Y--OMe)(dR)C--NH2 [Peptide 11L]
- platelet aggregation potency compared with analogue 32 (platelets [1]; [8]): decrease in potency

Substance: Ac- CNPRGD(Y--OMe)AC--NH2 [Peptide 11K]
- ex vivo inhibition of platelet aggregation (%) (platelets [3]): > 98%
- ex vivo platelet aggregation (platelets [3]): inhibited ex vivo platelet aggregation
- platelet aggregation potency compared with analogue 32 (platelets [1]; [8]): substantial decreases in platelet aggregation potency

Substance: Ac- CNPRGD(Y--OMe)EC--NH2 [Peptide 11J]
- ex vivo inhibition of platelet aggregation (%) (platelets [3]): > 98%
- ex vivo platelet aggregation (platelets [3]): inhibited ex vivo platelet aggregation
- decrease in platelet aggregation potency relative to analogue 32 (platelets [1]; [8]): 15 fold

Substance: Ac- CNPRGD(Y--OMe)KC--NH2 [Peptide 11R]
- inhibitory activity retained relative to analogue 32 (platelets [1]; [8]): 20%

Substance: Ac-CIPRGD(Y-OMe)RC-NH2 [Peptide 10R]
- increase in platelet aggregation potency relative to analogue 26 (platelets [1]): 3-4 fold

Substance: Ac-CNPRGD(O-N-Butyl-Y)RC-NH2 [Ac CNPRGD(O-n-butyl-Tyr)RC--NH2]
- IC50 (platelets [2]): 0.1 µM

Substance: FRGDSPDG
- IC50 [4]: 2.4 µM
- IC50 [5]: 0.04 µM

Substance: G(Pen)FRGDSFCA
- IC50 (platelets [2]): > 200 µM

Substance: G(Pen)GHRGDTRCA
- IC50 (platelets [2]): 11.3 µM
- IC50 (platelets [6]): 17 µM

Substance: G(Pen)GRGDRPCA
- IC50 (platelets [2]): 22.3 µM

Substance: G(Pen)GRGDTPCA
- IC50 (platelets [2]): 22.3 µM
- IC50 (platelets [6]): 28 µM

Substance: G(Pen)LRGDSPCA
- IC50 (platelets [2]): 415 µM
- IC50 (platelets [6]): 308 µM

Substance: G(Pen)LRGDSRCA
- IC50 (platelets [2]): 41 µM
- IC50 (platelets [6]): 49 µM

Substance: G(Pen)LRGDTPCA
- IC50 (platelets [2]): 86 µM

Substance: GRGDSP [reference compound]
- IC50 (canine platelets; read-out: concentration inhibiting all three canine platelet aggregation responses by 50%): ~130 µM

Substance: G[Pen]GRGDSFCA (cysteine pairing not given here)
- IC50 (platelets [2]): 115 µM

Substance: G[Pen]YRGDSPCA (cysteine pairing not given here)
- IC50 (platelets [2]): 47 µM

Substance: L(Pen)GHRGDLRCA
- IC50 (platelets [2]): 10.5 µM

Substance: LRGDSPDG
- IC50 [5]: 0.2 µM

Substance: R2(Pen)GRGDTPCA
- IC50 (platelets [2]): 8.2 µM
- IC50 (platelets [6]): 2.7 µM

Substance: R(D-Pen)GHRGDLRCR [analogue 4]
- platelet aggregation potency relative to analogue 3 (platelets [1]): 2 fold

Substance: R(Pen)GRGDTPCA
- IC50 (platelets [2]): 7 µM
- IC50 (platelets [6]): 3.1 µM

Substance: R(Pen)GRGDTPCK
- IC50 (platelets [2]): 7.6 µM

Substance: R(Pen)GRGDTPCR
- IC50 (platelets [2]): 6.3 µM
- IC50 (platelets [6]): 2 µM

Substance: R(Pen)GRGDWPCR [Peptide 4R]
- coronary thrombosis, occlusion (coronary thrombosis; 3 mg/kg): ineffective
- coronary thrombosis, time to full occlusion (coronary thrombosis; 10 mg/kg): prevented occlusion throughout the duration of the study
- IC50 (canine platelets; read-out: IC50 against canine platelet aggregation): 1.5 to 5 µM
- ex vivo platelet aggregation by ADP, AA and collagen (platelets [7]): unresponsive to all modes of stimulation at all time points
- IC50 (platelets [6]): 0.53 µM

Substance: R(Pmc)GHRGDFRCR
- IC50 (platelets [2]): 0.62 µM
- increase in platelet aggregation potency relative to analogue 5 (platelets [1]): ~5 fold

Substance: R(Pmc)GHRGDLRCR [analogue 5]
- platelet aggregation potency relative to analogue 3 (platelets [1]): 3 fold

Substance: R(Pmc)GHRGDVRCR
- IC50 (platelets [2]): 0.69 µM
- increase in platelet aggregation potency relative to analogue 5 (platelets [1]): 4 fold

Substance: R(Pmc)GHRGDYRCR
- IC50 (platelets [2]): 1 µM

Substance: R(Tmc)GHRGDLRCR [analogue 7]
- platelet aggregation potency relative to analogue 3 (platelets [1]): 2 fold

Substance: R(orn)GHRGDLRDR
- IC50 (platelets [2]): > 200 µM

Substance: R[Pen]GHRGDTRCR (cysteine pairing not given here)
- IC50 (platelets [2]): 8.8 µM

Substance: R[Pen]GRGDLRCA (cysteine pairing not given here)
- IC50 (platelets [2]): 16 µM
- IC50 (platelets [6]): 13 µM

Substance: R[Pen]GRGDSRCA (cysteine pairing not given here)
- IC50 (platelets [2]): 12 µM
- IC50 (platelets [6]): 12 µM

Substance: VRGDSPDG
- IC50 [4]: 0.04 µM
- IC50 (GP IIb/IIIa): 0.27 µM
- IC50 [5]: 0.24 µM

Substance: YRGDSPDG
- IC50 [5]: 0.08 µM
